# “Also recorded” adds a separate entry of the source.
# Legend:
# fermentation cultures [1] = test: DME toxicity study: viability by colony forming units (CFU) after 24 hours; assay type: cell-based
# Description: (§1) Toxicity studies were performed to determine the effects of DME on fermentation cultures. Cell growth, viability and solvent production were measured to determine what effect DME has on fermentation cultures. Cell growth was monitored by absorption measurements taken at 600 nm (A600). Viability was measured by counting the colony forming units (CFU) after 24 hours. Solvent production was quantified by HPLC.
# (§2) The first round of testing was performed using media that had been sparged with DME gas at 23° C. The amount of DME absorbed into the media was measured by weight gain after sparging. […] Two control cultures were also used for direct comparison of cultures with and without the presence of DME.
# fermentation cultures [2] = test: DME toxicity study: cell growth by absorption at 600 nm (A600); assay type: cell-based
# Description: as §1, §2
# A second round of testing was performed at lower DME concentrations. […] Based on the solvent measurements in Table 8 and Table 9 solvent production was also unaffected by DME at 0.7 wt. %. […] This is apparent after examination of the cell density and solvent production for samples 1-5, 2-1, 2-4 and 2-5 in comparison to the control samples 1-B and 2-B.
smiles,measurement,setting,value
"COC [DME, dimethyl ether]",effect on cell viability (CFU),"fermentation cultures [1]; DME approximately 3 wt. %, cultures 1-2 and 1-3",not toxic
same,effect on cell viability (CFU),"fermentation cultures [1]; DME approximately 4 wt. %, second set of cultures",toxicity issues
same,CFU/ml after 24 hours,"fermentation cultures [1]; culture 1-1, […] DME",770 CFU/ml
same,CFU/ml after 24 hours,"fermentation cultures [1]; culture 1-2, 3.48% DME",>10000 CFU/ml
same,CFU/ml after 24 hours,"fermentation cultures [1]; culture 1-3, […] DME",200000 CFU/ml
same,CFU/ml after 24 hours,"fermentation cultures [1]; culture 2-1, weight % DME printed as ?",0 CFU/ml
same,CFU/ml after 24 hours,"fermentation cultures [1]; culture 2-2, 3.92% DME",4480 CFU/ml
same,CFU/ml after 24 hours,"fermentation cultures [1]; culture 2-3, 3.72% DME",130 CFU/ml
same,effect on growth and solvent production,fermentation cultures [2]; DME above 2.5 wt. % (2.5 to 3 wt. %),substantial decrease; also recorded: more substantially inhibited; also recorded: severely inhibit
same,effect on growth and solvent production,fermentation cultures [2]; DME approximately 1.6 wt. %,some inhibition; also recorded: partially inhibit
same,effect on cell growth and solvent production,fermentation cultures [2]; DME below 0.7 wt. %,did not appear to inhibit growth; also recorded: do not have a noticeable effect; also recorded: have no observable effect; also recorded: no noticeable effect
same,A600,"fermentation cultures [2]; culture 1-1, […] DME, 4 hours",0.184
same,A600,"fermentation cultures [2]; culture 1-1, […] DME, 7 hours",0.241
same,A600,"fermentation cultures [2]; culture 1-1, […] DME, 28 hours",0.137
same,A600,"fermentation cultures [2]; culture 1-1, […] DME, 196 hours",0.075
same,A600,"fermentation cultures [2]; culture 1-2, 3.48% DME, 4 hours",0.205
same,A600,"fermentation cultures [2]; culture 1-2, 3.48% DME, 7 hours",0.194
same,A600,"fermentation cultures [2]; culture 1-2, 3.48% DME, 28 hours",0.175
same,A600,"fermentation cultures [2]; culture 1-2, 3.48% DME, 196 hours",0.39
same,A600 values,"fermentation cultures [2]; culture 1-2, DME 18.1 g/L, 3 hours",0.523
same,A600 values,"fermentation cultures [2]; culture 1-2, DME 18.1 g/L, 24 hours",2.565
same,A600 values,"fermentation cultures [2]; culture 1-2, DME 18.1 g/L, 40 hours",1.82
same,A600 values,"fermentation cultures [2]; culture 1-2, DME 18.1 g/L, 64 hours",1.97
same,A600 values,"fermentation cultures [2]; culture 1-3, DME 19.4 g/L, 3 hours",0.463
same,A600 values,"fermentation cultures [2]; culture 1-3, DME 19.4 g/L, 24 hours",2.695
same,A600 values,"fermentation cultures [2]; culture 1-3, DME 19.4 g/L, 40 hours",2.16
same,A600 values,"fermentation cultures [2]; culture 1-3, DME 19.4 g/L, 64 hours",2.15
same,A600,"fermentation cultures [2]; culture 1-3, […] DME, 4 hours",0.340
same,A600,"fermentation cultures [2]; culture 1-3, […] DME, 7 hours",0.690
same,A600,"fermentation cultures [2]; culture 1-3, […] DME, 22 hours",1.745
same,A600,"fermentation cultures [2]; culture 1-3, […] DME, 28 hours",1.69
same,A600,"fermentation cultures [2]; culture 1-3, […] DME, 196 hours",1.08
same,A600 values,"fermentation cultures [2]; culture 1-4*, DME 43.8 g/L, 3 hours",0.807
same,A600 values,"fermentation cultures [2]; culture 1-4*, DME 43.8 g/L, 24 hours",3.005
same,A600 values,"fermentation cultures [2]; culture 1-4*, DME 43.8 g/L, 40 hours",1.95
same,A600 values,"fermentation cultures [2]; culture 1-4*, DME 43.8 g/L, 64 hours",2.14
same,A600 values,"fermentation cultures [2]; culture 1-5, DME 25.8 g/L, 3 hours",0.543
same,A600 values,"fermentation cultures [2]; culture 1-5, DME 25.8 g/L, 24 hours",1.415
same,A600 values,"fermentation cultures [2]; culture 1-5, DME 25.8 g/L, 40 hours",1.28
same,A600 values,"fermentation cultures [2]; culture 1-5, DME 25.8 g/L, 64 hours",1.26
same,A600 values,"fermentation cultures [2]; culture 2-1, DME 26.0 g/L, 3 hours",0.505
same,A600 values,"fermentation cultures [2]; culture 2-1, DME 26.0 g/L, 24 hours",1.390
same,A600 values,"fermentation cultures [2]; culture 2-1, DME 26.0 g/L, 40 hours",2.48
same,A600 values,"fermentation cultures [2]; culture 2-1, DME 26.0 g/L, 64 hours",2.24
same,A600,"fermentation cultures [2]; culture 2-1, weight % DME printed as ?, 4 hours",0.140
same,A600,"fermentation cultures [2]; culture 2-1, weight % DME printed as ?, 7 hours",0.157
same,A600,"fermentation cultures [2]; culture 2-1, weight % DME printed as ?, 28 hours",0.072
same,A600,"fermentation cultures [2]; culture 2-1, weight % DME printed as ?, 196 hours",0.05
same,A600,"fermentation cultures [2]; culture 2-2, 3.92% DME, 4 hours",0.173
same,A600,"fermentation cultures [2]; culture 2-2, 3.92% DME, 7 hours",0.178
same,A600,"fermentation cultures [2]; culture 2-2, 3.92% DME, 28 hours",0.127
same,A600,"fermentation cultures [2]; culture 2-2, 3.92% DME, 196 hours",0.32
same,A600 values,"fermentation cultures [2]; culture 2-2, DME 6.8 g/L, 3 hours",0.776
same,A600 values,"fermentation cultures [2]; culture 2-2, DME 6.8 g/L, 24 hours",3.755
same,A600 values,"fermentation cultures [2]; culture 2-2, DME 6.8 g/L, 40 hours",1.29
same,A600 values,"fermentation cultures [2]; culture 2-2, DME 6.8 g/L, 64 hours",1.36
same,A600,"fermentation cultures [2]; culture 2-3, 3.72% DME, 4 hours",0.230
same,A600,"fermentation cultures [2]; culture 2-3, 3.72% DME, 7 hours",0.159
same,A600,"fermentation cultures [2]; culture 2-3, 3.72% DME, 28 hours",0.077
same,A600,"fermentation cultures [2]; culture 2-3, 3.72% DME, 196 hours",0.06
same,A600 values,"fermentation cultures [2]; culture 2-3, DME 6.6 g/L, 3 hours",0.783
same,A600 values,"fermentation cultures [2]; culture 2-3, DME 6.6 g/L, 24 hours",3.700
same,A600 values,"fermentation cultures [2]; culture 2-3, DME 6.6 g/L, 40 hours",2.65
same,A600 values,"fermentation cultures [2]; culture 2-3, DME 6.6 g/L, 64 hours",2.63
same,A600 values,"fermentation cultures [2]; culture 2-4, DME 29.1 g/L, 3 hours",0.590
same,A600 values,"fermentation cultures [2]; culture 2-4, DME 29.1 g/L, 24 hours",1.195
same,A600 values,"fermentation cultures [2]; culture 2-4, DME 29.1 g/L, 40 hours",2.63
same,A600 values,"fermentation cultures [2]; culture 2-4, DME 29.1 g/L, 64 hours",2.19
same,A600 values,"fermentation cultures [2]; culture 2-5, DME 27.9 g/L, 3 hours",0.885
same,A600 values,"fermentation cultures [2]; culture 2-5, DME 27.9 g/L, 24 hours",1.735
